What was measured:
PI3K beta = biological target: T1, PI3K beta (Homo sapiens, UniProt P42338); assay: PI3K beta kinase assay (Kinase-Glo luminescence); type: biochemical
T1 construct: for the full-length p110-b subunit are generated and fused by overlapping PCR; p85(iSH2) fusion partner (see partner chain) (N); His tag (C); made in house; host or cells: baculovirus; Tn5 (Trichoplusia ni) or TiniPro insect cells
Method in brief: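 p110β full-length/p85 iSH2 construct (BV-949), 25 nM, with 1 μM ATP and 10 μg/mL phosphatidylinositol in 10 mM Tris pH 7.5, 3 mM MgCl2, 50 mM NaCl, 0.05% CHAPS, 1 mM DTT. 60 min at room temperature; ATP remaining read by Kinase-Glo luminescence. IC50 from 8-point four-parameter logistic fit.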

[1] = test system: PKB Ser473 phosphorylation in Rat1-myr-HA-p110 alpha cells; assay: Reverse protein array assay, PKB Ser473 phosphorylation in Rat1-myr-p110 alpha cells; type: cell-based; settings: 0.5 h, pAkt Ser473, 30 minutes compound incubation, read-out: p-PKB IC50
Method in brief: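 Lysates were arrayed at four dilutions, and phospho-PKB Ser473 was quantified by relative fluorescence signal. They came from Rat1-myr-HA-p110 alpha, beta or delta cells exposed for 30 min at 37 °C to an 8-point compound series with 0.2% DMSO constant.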

[2] = test system: S6 Ribosomal Protein phosphorylation Ser235/236 in TSC1 null mouse embryo fibroblast (MEF) cells; assay: Reverse protein array assay, S6 Ribosomal Protein phosphorylation Ser235/236 in TSC1 null MEF cells; type: cell-based; settings: 1 h, pS6 ribosomal protein Ser235/236, 60 minutes incubation, read-out: p-S6 IC50
Method in brief: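 TSC1−/− MEFs, seeded and held ≥20 h at 37 °C/5% CO2, were exposed to 8-step serial compound dilutions (0.02% DMSO final; DMSO vehicle control) for 60 min at 37 °C. Cells were then lysed on ice for 10 min and lysates spotted onto reverse protein array chips.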

T1 sequence (P42338 with tags, fused parts or gaps limits assumed): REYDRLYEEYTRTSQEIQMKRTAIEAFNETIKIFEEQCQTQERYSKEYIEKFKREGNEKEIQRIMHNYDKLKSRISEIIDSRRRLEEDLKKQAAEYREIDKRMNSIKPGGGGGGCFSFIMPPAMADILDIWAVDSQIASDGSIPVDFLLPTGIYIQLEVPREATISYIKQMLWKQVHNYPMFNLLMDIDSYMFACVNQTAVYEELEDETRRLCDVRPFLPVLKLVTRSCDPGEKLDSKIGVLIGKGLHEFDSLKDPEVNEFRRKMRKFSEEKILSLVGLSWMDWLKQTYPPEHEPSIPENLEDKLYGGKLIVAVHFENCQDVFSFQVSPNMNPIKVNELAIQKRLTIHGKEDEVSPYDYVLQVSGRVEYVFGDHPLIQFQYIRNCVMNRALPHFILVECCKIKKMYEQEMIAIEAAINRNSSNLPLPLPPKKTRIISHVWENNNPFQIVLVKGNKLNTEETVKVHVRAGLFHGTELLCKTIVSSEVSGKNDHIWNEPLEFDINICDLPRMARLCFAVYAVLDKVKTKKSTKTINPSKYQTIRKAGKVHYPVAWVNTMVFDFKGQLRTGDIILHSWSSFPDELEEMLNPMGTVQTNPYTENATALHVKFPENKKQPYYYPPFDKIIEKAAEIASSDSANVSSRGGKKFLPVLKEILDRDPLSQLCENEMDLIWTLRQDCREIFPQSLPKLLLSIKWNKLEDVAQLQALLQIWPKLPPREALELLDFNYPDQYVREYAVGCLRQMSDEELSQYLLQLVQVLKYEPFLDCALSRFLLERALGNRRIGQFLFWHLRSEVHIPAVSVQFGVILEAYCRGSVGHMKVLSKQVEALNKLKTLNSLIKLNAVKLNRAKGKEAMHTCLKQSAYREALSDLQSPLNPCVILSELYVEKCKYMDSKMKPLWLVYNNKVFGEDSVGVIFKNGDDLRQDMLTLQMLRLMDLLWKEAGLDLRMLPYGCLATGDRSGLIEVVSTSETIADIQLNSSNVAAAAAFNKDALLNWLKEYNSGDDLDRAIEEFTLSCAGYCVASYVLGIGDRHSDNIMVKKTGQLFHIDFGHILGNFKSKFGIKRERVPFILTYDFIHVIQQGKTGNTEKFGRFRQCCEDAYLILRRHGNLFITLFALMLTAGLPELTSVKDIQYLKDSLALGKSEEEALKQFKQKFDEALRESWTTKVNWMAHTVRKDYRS

Structure (SMILES)	IC50 (PI3K beta) [nM]	IC50 [1] [nM]	IC50 [2] [nM]
CC(=O)Nc1cc(-c2ccc3ncc4c(c3c2)n(-c2cn(C)nc2C)c(=O)n4C)cnc1Cl [Example 222, N-{2-Chloro-5-[1-(1,3-dimethyl-1H-pyrazol-4-yl)-3-methyl-2-oxo-2,3-dihydro-1H-imidazo[4,5-c]quinolin-8-yl]-pyridin-3-yl}-acetamide]	134	55	4
COc1ncc(-c2ccc3ncc4c(c3c2)n(-c2cn(C(C)C)nc2C)c(=O)n4C)c(OC)n1 [Example 234.3, 8-(2,4-Dimethoxy-pyrimidin-5-yl)-1-(1-isopropyl-3-methyl-1H-pyrazol-4-yl)-3-methyl-1,3-dihydro-imidazo[4,5-c]quinolin-2-one]	150	15	2
Cc1nn(C)cc1-n1c(=O)n(C)c2cnc3ccc(-c4cnc(CO)c(Cl)c4)cc3c21 [Example 238, 8-(5-Chloro-6-hydroxymethyl-pyridin-3-yl)-1-(1,3-dimethyl-1H-pyrazol-4-yl)-3-methyl-1,3-dihydro-imidazo[4,5-c]quinolin-2-one]	103	32	6
CCOC(C)(C)c1cncc(-c2ccc3ncc4c(c3c2)n(-c2cn(C)nc2C)c(=O)n4C)c1 [Example 240, 1-(1,3-Dimethyl-1H-pyrazol-4-yl)-8-[5-(1-ethoxy-1-methyl-ethyl)-pyridin-3-yl]-3-methyl-1,3-dihydro-imidazo[4,5-c]quinolin-2-one]	91	72	11
C=CCn1c(=O)n(-c2cn(C)nc2C)c2c3cc(-c4cncc(N)c4)ccc3ncc21 [Example 246, 3-Allyl-8-(5-amino-pyridin-3-yl)-1-(1,3-dimethyl-1H-pyrazol-4-yl)-1,3-dihydro-imidazo[4,5-c]quinolin-2-one]	82	227	41

The next compounds have a lower IC50 (PI3K beta) than those just listed; values first:

IC50 (PI3K beta) [nM]	IC50 [1] [nM]	Structure (SMILES)	IC50 [2] [nM]
44	80	Cc1nn(C)cc1-n1c(=O)n(C)c2cnc3ccc(-c4cnc(N)c(C(=O)NC(C)C)c4)cc3c21 [Example 225, 2-Amino-5-[1-(1,3-dimethyl-1H-pyrazol-4-yl)-3-methyl-2-oxo-2,3-dihydro-1H-imidazo[4,5-c]quinolin-8-yl]-N-isopropyl-nicotinamide]	4
29	18	CCn1cc(-n2c(=O)n(C)c3cnc4ccc(-c5cncc(C6(C#N)CCC6)c5)cc4c32)c(C)n1 [Example 221.2, 1-{5-[1-(1-Ethyl-3-methyl-1H-pyrazol-4-yl)-3-methyl-2-oxo-2,3-dihydro-1H-imidazo[4,5-c]quinolin-8-yl]-pyridin-3-yl}-cyclobutanecarbonitrile]	1
7	11	Cc1nn(C)cc1-n1c(=O)n(C)c2cnc3ccc(-c4cnc(Cl)c(NS(C)(=O)=O)c4)cc3c21 [Example 223, N-{2-Chloro-5-[1-(1,3-dimethyl-1H-pyrazol-4-yl)-3-methyl-2-oxo-2,3-dihydro-1H-imidazo[4,5-c]quinolin-8-yl]-pyridin-3-yl}-methanesulfonamide]	35

From US20140005163A1 (NOVARTIS AG, priority 2010, published 2014)
